Reference: patent publication US9168259B2 (GRÜNENTHAL GMBH, priority 2010, dated 2015)

Molecular target: T1, KCNQ2/3 channels (Homo sapiens, UniProt O43525+O43526)
T1 construct: expressed in transfected cells
Experiment: Fluorescence assay using a voltage sensitive dye (fluorimetry)
Type: cell-based
Conditions: CHO-K1 cells expressing KCNQ2/3; for Emax: CHO-K1, plateau effect relative to saturated retigabine (50 μM) = 100%, negative values = antagonistic, read-out: Fluorimetry % efficacy (retigabine = 100%); for EC50: IC50 where % efficacy is negative, read-out: Fluorimetry EC50/IC50

T1 sequence (O43526 whole entry): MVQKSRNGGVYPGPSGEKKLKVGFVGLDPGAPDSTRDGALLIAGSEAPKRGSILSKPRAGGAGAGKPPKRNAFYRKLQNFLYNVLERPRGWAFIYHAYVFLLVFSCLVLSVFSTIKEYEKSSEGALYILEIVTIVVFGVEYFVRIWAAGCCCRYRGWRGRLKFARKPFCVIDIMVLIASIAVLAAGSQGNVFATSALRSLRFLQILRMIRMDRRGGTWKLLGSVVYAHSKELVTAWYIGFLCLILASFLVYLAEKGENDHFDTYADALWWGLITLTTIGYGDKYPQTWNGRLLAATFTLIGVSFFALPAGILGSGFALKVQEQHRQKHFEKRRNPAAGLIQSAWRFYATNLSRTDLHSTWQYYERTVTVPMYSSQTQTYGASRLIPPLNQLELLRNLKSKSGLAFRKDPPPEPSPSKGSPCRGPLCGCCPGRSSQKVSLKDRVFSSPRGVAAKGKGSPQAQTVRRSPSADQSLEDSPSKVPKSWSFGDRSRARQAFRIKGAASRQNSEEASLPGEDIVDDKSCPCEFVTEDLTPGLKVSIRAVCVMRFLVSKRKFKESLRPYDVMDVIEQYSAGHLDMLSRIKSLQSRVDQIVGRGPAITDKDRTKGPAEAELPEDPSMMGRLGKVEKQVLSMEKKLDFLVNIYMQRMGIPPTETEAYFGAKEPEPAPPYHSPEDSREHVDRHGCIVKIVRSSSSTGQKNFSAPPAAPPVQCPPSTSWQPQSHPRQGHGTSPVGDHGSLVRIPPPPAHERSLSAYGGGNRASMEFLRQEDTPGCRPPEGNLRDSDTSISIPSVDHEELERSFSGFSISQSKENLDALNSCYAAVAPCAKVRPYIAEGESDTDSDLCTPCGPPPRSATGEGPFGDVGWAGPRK
T1 sequence (O43525 whole entry): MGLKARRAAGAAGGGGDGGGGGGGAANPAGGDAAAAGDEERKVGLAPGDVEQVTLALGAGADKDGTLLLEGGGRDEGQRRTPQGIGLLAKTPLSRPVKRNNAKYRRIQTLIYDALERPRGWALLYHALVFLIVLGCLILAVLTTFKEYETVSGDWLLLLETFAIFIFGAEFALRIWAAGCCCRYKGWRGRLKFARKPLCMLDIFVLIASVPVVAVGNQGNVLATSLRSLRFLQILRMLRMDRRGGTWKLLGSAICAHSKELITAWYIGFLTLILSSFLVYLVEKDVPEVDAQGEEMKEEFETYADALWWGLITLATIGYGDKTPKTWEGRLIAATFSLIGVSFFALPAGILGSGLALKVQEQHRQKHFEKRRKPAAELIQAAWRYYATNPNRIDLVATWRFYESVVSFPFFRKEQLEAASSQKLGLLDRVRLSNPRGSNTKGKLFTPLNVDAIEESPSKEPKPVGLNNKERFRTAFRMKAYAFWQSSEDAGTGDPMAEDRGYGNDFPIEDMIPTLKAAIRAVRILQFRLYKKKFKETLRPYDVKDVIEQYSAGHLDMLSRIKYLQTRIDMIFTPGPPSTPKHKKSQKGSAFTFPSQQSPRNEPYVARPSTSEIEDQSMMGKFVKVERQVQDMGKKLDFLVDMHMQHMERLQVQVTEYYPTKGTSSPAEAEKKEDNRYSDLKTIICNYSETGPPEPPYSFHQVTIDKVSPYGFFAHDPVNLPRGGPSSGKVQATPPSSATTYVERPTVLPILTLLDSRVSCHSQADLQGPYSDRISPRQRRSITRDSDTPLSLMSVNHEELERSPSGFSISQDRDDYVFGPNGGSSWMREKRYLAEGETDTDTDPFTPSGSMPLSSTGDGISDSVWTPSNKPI

| SMILES | Emax [%] | EC50 [nM] |
| --- | --- | --- |
| Cc1cc(N2CCOCC2)nc(OCCN(C)C)c1C(=O)NCc1ccc(Cl)cc1 [Example 283, N-[(4-Chlorophenyl)-methyl]-2-(2-dimethylaminoethyloxy)-4-methyl-6-morpholin-4-yl-pyridine-3-carboxylic acid amide] | 22 |  |
| CCSc1nc(N2CCOCC2)cc(C)c1C(=O)NCc1ccc(F)c(OC)c1 [Example 284, 2-Ethylsulfanyl-N-[(4-fluoro-3-methoxy-phenyl)-methyl]-4-methyl-6-morpholin-4-yl-pyridine-3-carboxylic acid amide] | 94 | 648 |
| COC[C@@H]1CN(c2cc(C)c(C(=O)NCc3ccc(Cl)cc3)c(C(C)C)n2)CCO1 [Example 285, N-[(4-Chlorophenyl)-methyl]-2-isopropyl-6-[(2S)-2-(methoxymethyl)-morpholin-4-yl]-4-methyl-pyridine-3-carboxylic acid amide] | 126 | 157 |
| CCSc1nc(N2CCOCC2)cc(C)c1C(=O)NCCC(O)C(C)C (stereo not drawn) [Example 286, 2-Ethylsulfanyl-N-(3-hydroxy-4-methyl-pentyl)-4-methyl-6-morpholin-4-yl-pyridine-3-carboxylic acid amide] | 198 | 1750 |
| CCSc1nc(N2CCOCC2)cc(C)c1C(=O)NCc1ccc(OC)c(F)c1 [Example 287, 2-Ethylsulfanyl-N-[(3-fluoro-4-methoxy-phenyl)-methyl]-4-methyl-6-morpholin-4-yl-pyridine-3-carboxylic acid amide] | 153 | 971 |
| CCSc1nc(N2CCOCC2)cc(C)c1C(=O)NCc1ccc(OC(F)F)cc1 [Example 288, N-[[4-(Difluoro-methoxy)-phenyl]-methyl]-2-ethylsulfanyl-4-methyl-6-morpholin-4-yl-pyridine-3-carboxylic acid amide] | 138 | 435 |
| CCSc1nc(N2CCOCC2)cc(C)c1C(=O)NCc1ccc2c(c1)COC2 [Example 289, N-(1,3-Dihydro-isobenzofuran-5-yl-methyl)-2-ethylsulfanyl-4-methyl-6-morpholin-4-yl-pyridine-3-carboxylic acid amide] | 129 | 2820 |
| COC[C@@H]1CN(c2cc(C)c(C(=O)NCc3ccc(Cl)cc3)c(C3CC3)n2)CCO1 [Example 290, N-[(4-Chlorophenyl)-methyl]-2-cyclopropyl-6-[(2S)-2-(methoxymethyl)-morpholin-4-yl]-4-methyl-pyridine-3-carboxylic acid amide] | 136 | 314 |
| CCSc1nc(N2Cc3ccccc3C2)cc(C)c1C(=O)NCc1cccc(F)c1 [Example 303, 6-(2,3-Dihydro-1H-isoindol-2-yl)-2-ethylsulfanyl-N-[(3-fluorophenyl)-methyl]-4-methyl-pyridine-3-carboxylic acid amide] | 54 | 1150 |
| CCSc1nc(N2CCc3ccccc32)cc(C)c1C(=O)NCc1cccc(F)c1 [Example 305, 6-(2,3-Dihydro-1H-indol-1-yl)-2-ethylsulfanyl-N-[(3-fluorophenyl)-methyl]-4-methyl-pyridine-3-carboxylic acid amide] | 57 |  |
| CCSc1nc(N2CCOCC2)cc(C)c1C(=O)NCC(C)CC(C)(C)C (stereo not drawn) [Example 306, 2-Ethylsulfanyl-4-methyl-6-morpholin-4-yl-N-(2,4,4-trimethyl-pentyl)-pyridine-3-carboxylic acid amide] | 33 |  |

More lines, now with the values ahead:

| Emax [%] | EC50 [nM] | SMILES |
| --- | --- | --- |
| 53 | 7950 | CCSc1nc(N2CCO[C@H](CO)C2)cc(C)c1C(=O)NCc1cccc(F)c1 [Example 291, 2-Ethylsulfanyl-N-[(3-fluorophenyl)-methyl]-6-[(2S)-2-(hydroxymethyl)-morpholin-4-yl]-4-methyl-pyridine-3-carboxylic acid amide] |
| 32 |  | CCSc1nc(N2CCO[C@@H](CO)C2)cc(C)c1C(=O)NCc1cccc(F)c1 [Example 292, 2-Ethylsulfanyl-N-[(3-fluorophenyl)-methyl]-6-[(2R)-2-(hydroxymethyl)-morpholin-4-yl]-4-methyl-pyridine-3-carboxylic acid amide] |
| 129 | 1030 | CCSc1nc(N(C)CC2CCCO2)cc(C)c1C(=O)NCc1cccc(F)c1 (stereo not drawn) [Example 294, 2-Ethylsulfanyl-N-[(3-fluorophenyl)-methyl]-4-methyl-6-[methyl-(tetrahydro-furan-2-yl-methyl)-amino]-pyridine-3-carboxylic acid amide] |
| 188 | 50 | CCSc1nc(N2CCOC[C@H]2C)cc(C)c1C(=O)NCc1cccc(F)c1 [Example 295, 2-Ethylsulfanyl-N-[(3-fluorophenyl)-methyl]-4-methyl-6-[(3R)-3-methyl-morpholin-4-yl]-pyridine-3-carboxylic acid amide] |
| 222 | 189 | CCSc1nc(N2CCOC[C@@H]2C)cc(C)c1C(=O)NCc1cccc(F)c1 [Example 296, 2-Ethylsulfanyl-N-[(3-fluorophenyl)-methyl]-4-methyl-6-[(3S)-3-methyl-morpholin-4-yl]-pyridine-3-carboxylic acid amide] |
| 125 | 177 | CCSc1nc(N(C)Cc2ccc(C(F)(F)F)cc2)cc(C)c1C(=O)NCc1cccc(F)c1 [Example 297, 2-Ethylsulfanyl-N-[(3-fluorophenyl)-methyl]-4-methyl-6-[methyl-[[4-(trifluoromethyl)-phenyl]-methyl]-amino]-pyridine-3-carboxylic acid amide] |
| 127 | 4590 | CCSc1nc(N2CCS(=O)(=O)CC2)cc(C)c1C(=O)NCc1cccc(F)c1 [Example 298, 6-(1,1-Dioxo-[1,4]thiazinan-4-yl)-2-ethylsulfanyl-N-[(3-fluorophenyl)-methyl]-4-methyl-pyridine-3-carboxylic acid amide] |
| 104 | 920 | CCSc1nc(N2CCC2)cc(C)c1C(=O)NCc1cccc(F)c1 [Example 299, 6-(Azetidin-1-yl)-2-ethylsulfanyl-N-[(3-fluorophenyl)-methyl]-4-methyl-pyridine-3-carboxylic acid amide] |
| 132 | 767 | CCSc1nc(N(C)C2CCOC2)cc(C)c1C(=O)NCc1cccc(F)c1 (stereo not drawn) [Example 301, 2-Ethylsulfanyl-N-[(3-fluorophenyl)-methyl]-4-methyl-6-(methyl-tetrahydro-furan-3-yl-amino)-pyridine-3-carboxylic acid amide] |
| 93 | 278 | CCSc1nc(N(C)c2ccccc2)cc(C)c1C(=O)NCc1cccc(F)c1 [Example 302, 2-Ethylsulfanyl-N-[(3-fluorophenyl)-methyl]-4-methyl-6-(N-methyl-anilino)-pyridine-3-carboxylic acid amide] |
| 81 | 348 | CCSc1nc(N2CCCc3ccccc32)cc(C)c1C(=O)NCc1cccc(F)c1 [Example 304, 2-Ethylsulfanyl-N-[(3-fluorophenyl)-methyl]-4-methyl-6-(1,2,3,4-tetrahydro-quinolin-1-yl)-pyridine-3-carboxylic acid amide] |
| 104 | 178 | CCSc1nc(N(C)C2CCCC(OC)C2)cc(C)c1C(=O)NCc1cccc(F)c1 (stereo not drawn) [Example 307, 2-Ethylsulfanyl-N-[(3-fluorophenyl)-methyl]-6-[(3-methoxy-cyclohexyl)-methyl-amino]-4-methyl-pyridine-3-carboxylic acid amide] |
